Data on 10 molecules can be found in patent US20210078972A1, “QUINOLINE OR QUINAZOLINE COMPOUND AND APPLICATION THEREOF” (HAIHE BIOPHARMA CO., LTD., priority 2018, published 2021).

Holding throughout (type): biochemical
One test concerns the target T1, Flt3 kinase (Homo sapiens, UniProt P36888).
T1 construct: purchased life PV6253
T1 sequence (P36888 27-993): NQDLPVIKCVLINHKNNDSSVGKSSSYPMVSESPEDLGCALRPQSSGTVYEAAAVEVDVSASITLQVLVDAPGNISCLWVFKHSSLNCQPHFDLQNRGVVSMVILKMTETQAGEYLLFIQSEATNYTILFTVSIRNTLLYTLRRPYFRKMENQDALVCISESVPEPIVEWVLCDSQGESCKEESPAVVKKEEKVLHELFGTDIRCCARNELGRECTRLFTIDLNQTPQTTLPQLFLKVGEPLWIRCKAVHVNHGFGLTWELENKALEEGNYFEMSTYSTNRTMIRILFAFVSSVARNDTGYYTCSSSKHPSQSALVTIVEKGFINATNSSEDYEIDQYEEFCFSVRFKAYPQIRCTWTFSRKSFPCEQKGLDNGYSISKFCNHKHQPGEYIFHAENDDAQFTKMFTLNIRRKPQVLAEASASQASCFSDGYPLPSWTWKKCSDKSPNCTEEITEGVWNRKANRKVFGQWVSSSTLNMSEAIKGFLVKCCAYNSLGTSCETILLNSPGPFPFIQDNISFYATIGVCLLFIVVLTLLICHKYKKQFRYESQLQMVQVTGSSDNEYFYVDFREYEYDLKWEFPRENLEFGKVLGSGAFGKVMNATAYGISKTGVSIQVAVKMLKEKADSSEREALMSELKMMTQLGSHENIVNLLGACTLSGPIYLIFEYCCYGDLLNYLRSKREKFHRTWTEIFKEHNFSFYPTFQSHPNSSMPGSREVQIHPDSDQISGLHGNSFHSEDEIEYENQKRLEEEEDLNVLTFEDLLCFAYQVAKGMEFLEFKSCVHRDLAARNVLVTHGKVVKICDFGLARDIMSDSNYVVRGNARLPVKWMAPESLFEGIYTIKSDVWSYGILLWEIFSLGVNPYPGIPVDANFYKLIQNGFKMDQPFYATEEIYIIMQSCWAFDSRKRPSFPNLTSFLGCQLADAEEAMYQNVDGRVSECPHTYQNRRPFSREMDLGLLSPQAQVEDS
Briefly: Flt3 kinase inhibition, Z'-LYTE FRET. Conditions: ATP 500 μM. An excerpt:
Detection of the activity of kinase: the inhibitory activities of the compounds against Flt3 kinase (life, PV6253) were detected through a second-order reaction by the Z′-LYTE™ technology (detected by fluorescence, enzyme-coupled form, based on the difference in a sensitivity of phosphorylated and non-phosphorylated polypeptides to proteolytic cleavage), based on the principle of fluorescence resonance energy transfer (FRET), using Z′-LYTE™ FRET peptide substrate (Z′-LYTE™ Tyrosine 2 Peptide Substrate, Invitrogen, PV3191).
Enzymatic reaction: To a 384-well plate were added 5 μL of enzyme-substrate system (50 mM HEPES, pH 7.5, 0.01% BRU-35, 10 mM MgC2, 1 mM EGTA), 2.5 μL of a compound (concentration gradient) and 2.5 μL of a mixed solution of ATP (a final concentration of a substrate Z′-LYTE™ Tyrosine 2 Peptide Substrate was 2 μM, and a final concentration of ATP was 500 μM), and then the plate was incubated at 37° C. in the dark for 1 h.
Detecting reaction: 5 μL of Development Solution (1:64 dilution) was added to each well and the plate was incubated at 37° C. in the dark for 1 h, then 5 μL of Stop Reagent was added.
(§1) The data analysis method is as follows:
(§2) Phosphorylation ratio=1−{(emission ratio×F100%−C100%)/[C0%−C100%+emission ratio×(F100%−F0%)]}×100;
(§3) Inhibition rate=100×(1−compound phosphorylation ratio/negative control phosphorylation ratio).
(§4) The IC50 values were calculated by GraphPad Prism software.

Test [1] deals with T2, AXL kinase domain recombinant protein (Homo sapiens, UniProt P30530).
T2 construct: the AXL kinase domain recombinant protein (eurofins, 14-512); purchased eurofins 14-512
T2 sequence (P30530 536-807 limits assumed): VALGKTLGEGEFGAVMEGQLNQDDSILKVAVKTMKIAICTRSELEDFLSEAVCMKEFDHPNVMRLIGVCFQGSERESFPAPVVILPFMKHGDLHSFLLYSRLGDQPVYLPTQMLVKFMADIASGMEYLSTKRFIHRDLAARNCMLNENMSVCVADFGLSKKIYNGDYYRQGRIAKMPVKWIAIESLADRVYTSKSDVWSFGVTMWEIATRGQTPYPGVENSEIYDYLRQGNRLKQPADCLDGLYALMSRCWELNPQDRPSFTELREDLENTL
Briefly: AXL kinase inhibition, ELISA. Conditions: ATP 5 μM. As for the experimental part:
Detection of the activity of kinase: Enzyme-linked immunosorbent assay (ELISA) technology was used to detect the inhibitory activities of the compounds against the kinase. […] After the liquid in the well was discarded, the plate was washed three times with T-PBS (PBS containing 0.1% Tween-20), 200 μL T-PBS per well, 5 minutes for each time. The enzyme label plate was dried in an oven at 37° C. for 1-2 hours. To each well was added 50 μL of ATP solution diluted with reaction buffer (50 mM HEPES, pH 7.4, 50 mM MgCl2, 0.5 mM MnCl2, 0.2 mM Na3VO4, 1 mM DTT) with a final concentration of 5 μM. […] Two wells with no enzyme for control are required for each experiment. The plate was incubated on a shaker (100 rpm) at 37° C. and reacted for 1 hour. The plate was washed three times with T-PBS. 100 μ/well of primary antibody PY99 dilution was added and the plate was reacted in a shaker at 37° C. for 0.5 hour. The plate was washed three times with T-PBS. 100 μ/well of secondary antibody horseradish peroxidase-labeled goat anti-mouse IgG dilution was added and the plate was reacted in a shaker at 37° C. for 0.5 hour. The plate was washed three times with T-PBS. 2 mg/ml of OPD color solution was added with 100 μ/well (diluted with 0.1 M citric acid-sodium citrate buffer (pH=5.4) containing 0.03% H2O2), and the plate was reacted at 25° C. in the dark for 1-10 minutes. (Ultrasound is required for the dissolution of OPD, and the color solution needs to be prepared for immediate use). 50 μ/well of 2 M H2SO4 was added to stop the reaction, and the wavelength-adjustable enzyme-labeling instrument SPECTRA MAX 190 was used to read the data at a wavelength of 490 nm.
The inhibition rate of the sample was obtained by the following formula: […]
The IC50 values were obtained by regression with the four-parameter method using the software attached to the enzyme-labeling instrument.
For orientation: In an ELISA, binding on a coated surface is turned into a signal by an enzyme label.

For the next test, the target named is T3, AXL kinase (Homo sapiens, UniProt P30530).
T3 construct: purchased eurofins 14-500
T3 sequence (P30530 473-894 limits assumed): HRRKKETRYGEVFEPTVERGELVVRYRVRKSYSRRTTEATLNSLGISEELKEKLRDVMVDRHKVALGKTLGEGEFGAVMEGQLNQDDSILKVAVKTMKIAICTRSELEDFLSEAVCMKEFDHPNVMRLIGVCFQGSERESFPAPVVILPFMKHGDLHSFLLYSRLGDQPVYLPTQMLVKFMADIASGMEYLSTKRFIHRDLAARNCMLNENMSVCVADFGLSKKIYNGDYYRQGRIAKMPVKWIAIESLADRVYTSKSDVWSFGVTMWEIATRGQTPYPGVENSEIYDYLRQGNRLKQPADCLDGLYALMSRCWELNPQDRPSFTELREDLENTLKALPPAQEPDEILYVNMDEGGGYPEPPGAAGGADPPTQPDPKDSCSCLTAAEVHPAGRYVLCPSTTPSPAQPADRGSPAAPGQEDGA
Briefly: AXL kinase inhibition, Z'-LYTE FRET. The following applies: ATP 50 μM.
Excerpt: Detection of the activity of kinase: the inhibitory activities of the compounds against AXL kinase (eurofins, 14-500) were detected through a second-order reaction by the Z′-LYTE™ technology (detected by fluorescence, enzyme-coupled form, based on the difference in a sensitivity of phosphorylated and non-phosphorylated polypeptides to proteolytic cleavage), based on the principle of fluorescence resonance energy transfer (FRET), using Z′-LYTE™ FRET peptide substrate (Z′-LYTE™ Tyrosine 6 Peptide Substrate, Invitrogen, PV4122).
Enzymatic reaction: To a 384-well plate was added 5 μL of enzyme-substrate system (50 mM HEPES, pH 6.5, 0.01% BRU-35, 10 mM MgC2, 1 mM EGTA, 0.02% NaNA), and 5 nL of a compound (concentration gradient) was transferred thereto using an echo520 ultramicro-liquid pipetting system. After the plate was shaken at room temperature for 10-20 min, 25 nL of ATP (a final concentration of 50 μM) was transferred thereto using the echo520 ultramicro-liquid pipetting system. After shaking and well mixing, the mixture was centrifuged and reacted at 30° C. in the dark for 1.5 h.
as §1, §2, §3, §4

One may read the IC50 as the concentration at which inhibition is half-maximal.

As for `COc1cc2c(Oc3ccc(NC(=O)c4c(C)n(C)c5ccc(OC(F)(F)F)cc5c4=O)cc3F)ccnc2cc1OCCCN1CCOCC1` [CCB-310, N-(3-fluoro-4-((6-methoxy-7-(3-morpholinopropoxy)quinolin-4-yl)oxy)phenyl)-1,2-dimethyl-4-oxo-6-(trifluoromethoxy)-1,4-dihydroquinoline-3-carboxamide], the IC50 against Flt3 kinase was 9.5 nM; in test [1], 1.8 nM. On the same counts, the results for `COCCOc1cc2ncnc(Oc3ccc(NC(=O)c4c(C)n(C)c5ccc(OC(F)(F)F)cc5c4=O)cc3F)c2cc1OCCOC` [TL-197, N-(4-((6,7-bis(2-methoxyethoxy)quinazolin-4-yl)oxy)-3-fluorophenyl)-1,2-dimethyl-4-oxo-6-(trifluoromethoxy)-1,4-dihydroquinoline-3-carboxamide] are 4.7 nM and 4.2 nM.

In the case of `COc1cc2ncnc(Oc3ccc(NC(=O)c4c(C)n(C)c5ccc(OC(F)(F)F)cc5c4=O)cc3F)c2cc1OC` [TL-198, N-(4-((6,7-dimethoxyquinazolin-4-yl)oxy)-3-fluorophenyl)-1,2-dimethyl-4-oxo-6-(trifluoromethoxy)-1,4-dihydroquinoline-3-carboxamide], the results for the concentration for half-maximal inhibition (IC50) (against Flt3 kinase; in test [1]) were 2.3 nM and 2.1 nM, respectively. For `COCCCOc1cc2c(Oc3ccc(NC(=O)c4c(C)n(C)c5ccc(OC(F)(F)F)cc5c4=O)cc3F)ncnc2cc1OC` [TL-199, N-(3-fluoro-4-((7-methoxy-6-(3-methoxypropoxy)quinazolin-4-yl)oxy)phenyl)-1,2-dimethyl-4-oxo-6-(trifluoromethoxy)-1,4-dihydroquinoline-3-carboxamide], in that order: 25.8 nM and 1.8 nM. On the same counts, the results for `COCCCCOc1cc2ncnc(Oc3ccc(NC(=O)c4c(C)n(C)c5ccc(OC(F)(F)F)cc5c4=O)cc3F)c2cc1OC` [TL-204, N-(3-fluoro-4-((6-methoxy-7-(4-methoxybutoxy)quinazolin-4-yl)oxy)phenyl)-1,2-dimethyl-4-oxo-6-(trifluoromethoxy)-1,4-dihydroquinoline-3-carboxamide] are 11.2 nM and 1.6 nM. For `COc1cc2c(Oc3ccc(NC(=O)c4c(C)n(C)c5ccc(OC(F)(F)F)cc5c4=O)cc3F)ncnc2cc1OCCN1CCOCC1` [TL-209, N-(3-fluoro-4-((6-methoxy-7-(2-morpholinoethoxy)quinazolin-4-yl)oxy)phenyl)-1,2-dimethyl-4-ox o-6-(trifluoromethoxy)-1,4-dihydroquinoline-3-carboxamide], the results for the IC50 (at Flt3 kinase; in test [1]) were 9.2 nM and 2 nM, respectively.

As to `COc1cc2c(Oc3ccc(NC(=O)c4c(C)n(C)c5ccc(OC(F)(F)F)cc5c4=O)cc3F)ncnc2cc1OCCCN1CCCC1` [TL-212, N-(3-fluoro-4-((6-methoxy-7-(3-(pyrrolidin-1-yl)propoxy)quinazolin-4-yl)oxy)phenyl)-1,2-dimethy 1-4-oxo-6-(trifluoromethoxy)-1,4-dihydroquinoline-3-carboxamide], the IC50 against Flt3 kinase stood at 5.2 nM; in test [1], 1.5 nM.

`COc1cc2c(Oc3ccc(NC(=O)c4c(C)n(C)c5ccc(OC(F)(F)F)cc5c4=O)cc3F)ncnc2cc1OCCN1CCCCC1` [TL-213, N-(3-fluoro-4-((6-methoxy-7-(2-(piperidin-1-yl)ethoxy)quinazolin-4-yl)oxy)phenyl)-1,2-dimethyl-4-oxo-6-(trifluoromethoxy)-1,4-dihydroquinoline-3-carboxamide]: the half-maximal inhibitory concentration (IC50) was found to be 6.4 nM at Flt3 kinase and 2.2 nM in test [1]. `COc1cc2c(Oc3ccc(NC(=O)c4c(C)n(C)c5ccc(OC(F)(F)F)cc5c4=O)cc3F)ncnc2cc1OCCCN1CCCCC1` [TL-216, N-(3-fluoro-4-((6-methoxy-7-(3-(piperidin-1-yl)propoxy)quinazolin-4-yl)oxy)phenyl)-1,2-dimethyl-4-oxo-6-(trifluoromethoxy)-1,4-dihydroquinoline-3-carboxamide] gave a concentration for half-maximal inhibition (IC50) at AXL kinase of 1.5 nM. Turning to `COCCCOc1cc2ncnc(Oc3ccc(NC(=O)c4c(C)n(C)c5ccc(OC(F)(F)F)cc5c4=O)cc3F)c2cc1OC` [TL-226, N-(3-fluoro-4-((6-methoxy-7-(3-methoxypropoxy)quinazolin-4-yl)oxy)phenyl)-1,2-dimethyl-4-oxo-6-(trifluoromethoxy)-1,4-dihydroquinoline-3-carboxamide], the IC50 on AXL kinase was determined as 4.7 nM.
